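Cells were grown in 96-well plates and exposed to each compound for 48 hours at five concentrations; endpoints were interpolated linearly between bracketing concentrations, or set to the highest concentration if not reached. GI50 marks 50% less growth.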 Calls of active or inactive are those of the source. Cut-off read from the data, not from the text of the source: active = GI50 up to about 1.1 µM and inactive = higher.
Assays:
Experiment in all cases: DTP human tumour cell line panel, 48 h
786-0 = system: 786-0
A498 = system: A498
A549 = system: A549
ACHN = system: ACHN
BT-549 = system: BT-549
CAKI-1 = system: CAKI-1
CCRF-CEM = system: CCRF-CEM
COLO 205 = system: COLO 205
DU-145 = system: DU-145
EKVX = system: EKVX
HCC 2998 = system: HCC 2998
HCT-116 = system: HCT-116
HCT-15 = system: HCT-15
HL-60 = system: HL-60
HOP-62 = system: HOP-62
HOP-92 = system: HOP-92
HT-29 = system: HT-29
Hs-578T = system: Hs-578T
IGROV-1 = system: IGROV-1
K562 = system: K562
KM12 = system: KM12
LOX IMVI = system: LOX IMVI
M14 = system: M14
MCF7 = system: MCF7
MDA-MB-231 = system: MDA-MB-231
MDA-MB-435 = system: MDA-MB-435
MDA-N = system: MDA-N
MOLT-4 = system: MOLT-4
Malme-3M = system: Malme-3M
NCI-H226 = system: NCI-H226
NCI-H23 = system: NCI-H23
NCI-H460 = system: NCI-H460
NCI-H522 = system: NCI-H522
NCI/ADR-RES = system: NCI/ADR-RES
OVCAR-3 = system: OVCAR-3
OVCAR-4 = system: OVCAR-4
OVCAR-5 = system: OVCAR-5
OVCAR-8 = system: OVCAR-8
PC-3 = system: PC-3
RPMI-8226 = system: RPMI-8226
RXF 393 = system: RXF 393
SF-268 = system: SF-268
SF-295 = system: SF-295
SF-539 = system: SF-539
SK-MEL-28 = system: SK-MEL-28
SK-MEL-2 = system: SK-MEL-2
SK-MEL-5 = system: SK-MEL-5
SK-OV-3 = system: SK-OV-3
SN12C = system: SN12C
SNB-19 = system: SNB-19
SNB-75 = system: SNB-75
SR = system: SR
SW-620 = system: SW-620
T47D = system: T47D
TK-10 = system: TK-10
U-251 = system: U-251
UACC-257 = system: UACC-257
UACC-62 = system: UACC-62
UO-31 = system: UO-31

N=C(N)SCc1ccc(Cl)cc1Cl.O=[N+]([O-])c1c(O)c(Cl)cc(Cl)c1Cl
GI50 (786-0): 11.7 µM (inactive) | GI50 (A498): 13.3 µM (inactive) | GI50 (A549): 22.3 µM (inactive) | GI50 (ACHN): 10.7 µM (inactive) | GI50 (BT-549): 16.3 µM (inactive) | GI50 (CAKI-1): 11 µM (inactive) | GI50 (CCRF-CEM): 3.18 µM (inactive) | GI50 (COLO 205): 14.2 µM (inactive) | GI50 (DU-145): 13.5 µM (inactive) | GI50 (EKVX): 15.3 µM (inactive) | GI50 (HCC 2998): 8.18 µM (inactive) | GI50 (HCT-116): 11.8 µM (inactive) | GI50 (HCT-15): 13.3 µM | GI50 (HL-60): 6.04 µM (inactive) | GI50 (HOP-62): 14.5 µM (inactive) | GI50 (HOP-92): 11.5 µM (inactive) | GI50 (HT-29): 11 µM (inactive) | GI50 (Hs-578T): 20.7 µM (inactive) | GI50 (IGROV-1): 17.8 µM (inactive) | GI50 (K562): 4.35 µM (inactive) | GI50 (KM12): 13.7 µM (inactive) | GI50 (LOX IMVI): 16.7 µM (inactive) | GI50 (M14): 11.4 µM (inactive) | GI50 (MCF7): 11.5 µM (inactive) | GI50 (MDA-MB-231): 10.7 µM (inactive) | GI50 (MDA-MB-435): 6.22 µM (inactive) | GI50 (MDA-N): 7.46 µM (inactive) | GI50 (MOLT-4): 7.4 µM (inactive) | GI50 (Malme-3M): 15.6 µM (inactive) | GI50 (NCI-H226): 20.5 µM (inactive) | GI50 (NCI-H23): 13.4 µM (inactive) | GI50 (NCI-H460): 10.6 µM (inactive) | GI50 (NCI-H522): 10.3 µM (inactive) | GI50 (NCI/ADR-RES): 19.5 µM (inactive) | GI50 (OVCAR-3): 13.1 µM (inactive) | GI50 (OVCAR-4): 12 µM (inactive) | GI50 (OVCAR-5): 16.3 µM (inactive) | GI50 (OVCAR-8): 24.3 µM (inactive) | GI50 (PC-3): 11.9 µM (inactive) | GI50 (RPMI-8226): 1.81 µM (inactive) | GI50 (RXF 393): 12.8 µM (inactive) | GI50 (SF-268): 17 µM (inactive) | GI50 (SF-295): 13.5 µM (inactive) | GI50 (SF-539): 12.9 µM (inactive) | GI50 (SK-MEL-28): 28.9 µM (inactive) | GI50 (SK-MEL-2): 12.7 µM (inactive) | GI50 (SK-MEL-5): 15.3 µM (inactive) | GI50 (SK-OV-3): 17.3 µM (inactive) | GI50 (SN12C): 11.9 µM (inactive) | GI50 (SNB-19): 19.4 µM (inactive) | GI50 (SNB-75): 15.1 µM (inactive) | GI50 (SR): 5.21 µM (inactive) | GI50 (SW-620): 15.2 µM (inactive) | GI50 (T47D): 9.82 µM (inactive) | GI50 (TK-10): 6.18 µM (inactive) | GI50 (U-251): 14.8 µM (inactive) | GI50 (UACC-257): 7.73 µM (inactive) | GI50 (UACC-62): 14.4 µM (inactive) | GI50 (UO-31): 9.06 µM (inactive)

CN(C)CCn1c(=O)c2ccc3c4c(nn3CCN(C)C)c3cc(N)ccc3n(c1=O)c24
GI50 (786-0): < 0.01 µM (active) | GI50 (A498): 0.061 µM (active) | GI50 (A549): < 0.01 µM (active) | GI50 (ACHN): < 0.0161 µM (active) | GI50 (BT-549): 0.127 µM (active) | GI50 (CAKI-1): 0.0741 µM (active) | GI50 (CCRF-CEM): < 0.0126 µM (active) | GI50 (COLO 205): < 0.0239 µM (active) | GI50 (DU-145): < 0.0167 µM (active) | GI50 (EKVX): 0.0507 µM (active) | GI50 (HCC 2998): < 0.01 µM (active) | GI50 (HCT-116): < 0.0145 µM (active) | GI50 (HCT-15): < 0.0169 µM | GI50 (HL-60): 0.0279 µM (active) | GI50 (HOP-62): < 0.01 µM (active) | GI50 (HOP-92): 0.191 µM (active) | GI50 (HT-29): < 0.01 µM (active) | GI50 (Hs-578T): 0.091 µM (active) | GI50 (IGROV-1): < 0.015 µM (active) | GI50 (K562): < 0.0133 µM (active) | GI50 (KM12): < 0.0196 µM (active) | GI50 (LOX IMVI): 0.0154 µM (active) | GI50 (M14): 0.0259 µM (active) | GI50 (MCF7): < 0.0207 µM (active) | GI50 (MDA-MB-231): < 0.0313 µM (active) | GI50 (MDA-MB-435): < 0.0209 µM (active) | GI50 (MDA-N): < 0.0239 µM (active) | GI50 (MOLT-4): < 0.011 µM (active) | GI50 (Malme-3M): 0.0667 µM (active) | GI50 (NCI-H226): 0.0791 µM (active) | GI50 (NCI-H23): < 0.01 µM (active) | GI50 (NCI-H460): < 0.01 µM (active) | GI50 (NCI-H522): 0.02 µM (active) | GI50 (NCI/ADR-RES): 0.0349 µM (active) | GI50 (OVCAR-3): < 0.0151 µM (active) | GI50 (OVCAR-4): 0.0165 µM (active) | GI50 (OVCAR-5): < 0.027 µM (active) | GI50 (OVCAR-8): 0.0238 µM (active) | GI50 (PC-3): < 0.0153 µM (active) | GI50 (RPMI-8226): < 0.01 µM (active) | GI50 (RXF 393): < 0.032 µM (active) | GI50 (SF-268): < 0.01 µM (active) | GI50 (SF-295): 0.0145 µM (active) | GI50 (SF-539): 0.0291 µM (active) | GI50 (SK-MEL-28): 0.0646 µM (active) | GI50 (SK-MEL-2): < 0.0292 µM (active) | GI50 (SK-MEL-5): 0.0516 µM (active) | GI50 (SK-OV-3): < 0.0211 µM (active) | GI50 (SN12C): < 0.0199 µM (active) | GI50 (SNB-19): < 0.0111 µM (active) | GI50 (SNB-75): < 0.01 µM (active) | GI50 (SR): < 0.0103 µM (active) | GI50 (SW-620): < 0.0148 µM (active) | GI50 (T47D): 0.0312 µM (active) | GI50 (TK-10): 0.0513 µM (active) | GI50 (U-251): < 0.0111 µM (active) | GI50 (UACC-257): 0.118 µM (active) | GI50 (UACC-62): 0.0902 µM (active) | GI50 (UO-31): < 0.0132 µM (active)

Source: ChEMBL document CHEMBL1201862, “PubChem BioAssay data set” (2004)
